Results as given in patent publication US20260224566A1, “Obicetrapib and Ezetimibe Combination Treatment and Fixed Dose Pharmaceutical Compositions” (NewAmsterdam Pharma B.V., priority 2023, published 2026).

How the values were obtained:
[1] = molecular target: T1, CETP (Homo sapiens, UniProt P11597); experiment: Example 13: CETP activity and mass in ApoE*3-Leiden.CETP mice; assay type: in vivo, mouse
T1 construct: from tissue; host or cells: female ApoE*3-Leiden.CETP transgenic mice dosed in vivo
T1 sequence (P11597 18-493): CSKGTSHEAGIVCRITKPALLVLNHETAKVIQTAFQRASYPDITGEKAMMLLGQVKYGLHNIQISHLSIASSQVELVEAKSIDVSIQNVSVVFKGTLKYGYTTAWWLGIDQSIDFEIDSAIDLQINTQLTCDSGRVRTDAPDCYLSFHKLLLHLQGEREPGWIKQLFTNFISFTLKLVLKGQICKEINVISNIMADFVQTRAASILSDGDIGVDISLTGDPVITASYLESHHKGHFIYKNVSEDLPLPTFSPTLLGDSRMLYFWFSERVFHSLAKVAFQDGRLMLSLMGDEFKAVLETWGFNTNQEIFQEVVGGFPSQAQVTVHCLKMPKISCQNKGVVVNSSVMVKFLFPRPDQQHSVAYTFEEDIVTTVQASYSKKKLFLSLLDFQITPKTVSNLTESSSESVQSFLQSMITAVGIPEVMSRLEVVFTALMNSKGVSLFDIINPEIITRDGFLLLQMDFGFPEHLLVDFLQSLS
Procedure: (§1) The experimental protocol is illustrated in FIG. 82, with time (t) measured in weeks. Female ApoE*3-Leiden.CETP transgenic mice were fed a Western diet with 0.05% w/w cholesterol (equivalent to daily human intake) with (i) no drug (control), or the same diet containing (ii) obicetrapib alone (2 mg/kg/day), (iii) ezetimibe alone (on average 0.6 mg/kg/day) or (iv) the combination of obicetrapib and ezetimibe.

[2] = TA-8995-04, healthy volunteers; cited from earlier work
[3] = tested on: ApoE*3-Leiden.CETP transgenic mice; experiment: Example 12: plasma lipids, VLDL clearance, LDL receptor, fecal and biliary sterols in ApoE*3-Leiden.CETP mice; assay type: in vivo, mouse
Text: Obicetrapib is a selective cholesteryl ester transfer protein (CETP) inhibitor currently in clinical development for the treatment of hypercholesterolemia and reduction of cardiovascular risk that strongly reduces Apolipoprotein B (ApoB) and low-density lipoprotein cholesterol (LDL-C) and concomitantly increases plasma high-density lipoprotein cholesterol (HDL-C). Ezetimibe reduces absorption of biliary and dietary cholesterol from the small intestine, thereby reducing LDL-C levels. The current study was carried out to elucidate the mechanism of action responsible for the observed decrease in non-HDL-C by obicetrapib monotherapy and in combination with ezetimibe in a translational mouse model for hyperlipidemia and atherosclerosis.
as §1, with “71,” for “82,”, “(1” for “(on average 0.6”, “ezetimibe. In the experiment, the effects of the treatments on, amongst other things, plasma blood lipids and fecal bile acids and sterols were determined.” for “ezetimibe.”

[4] = obicetrapib 2 mg/kg/day, ezetimibe 1 mg/kg/day in Western diet

## CCOC(=O)N1c2ccc(C(F)(F)F)cc2[C@@H](N(Cc2cc(C(F)(F)F)cc(C(F)(F)F)c2)c2ncc(OCCCC(=O)O)cn2)C[C@H]1CC [obicetrapib, {4-[(2-{[3,5-bis(trifluoromethyl)benzyl] [(2R,4S)-1-(ethoxycarbonyl)-2-ethyl-6-(trifluoromethyl)-1,2,3,4-tetrahydroquinolin-4-yl]amino}pyrimidin-5-yl)oxy]butanoic acid}]
[1]; FIG. 87B
  cetp mass: without statistically significant changes
[1]; obicetrapib 2 mg/kg/day, ezetimibe on average 0.6 mg/kg/day in Western diet
  CETP activity, change: −98%
[2]
  effect on the QTcF: no effect
[3]; FIG. 74
  triglycerides levels: decreased
[3]; FIG. 77
  liver uptake of VLDL like particles: increased
[3]; FIG. 78
  plasma pcsk-9 levels: decreased
[3]; FIG. 81
  cholesterol balance: decreased
[3]; not shown
  biliary bile acids and biliary bile acid flow: did not affect
  biliary phospholipids and biliary phospholipid flow: did not affect
[3]; obicetrapib 2 mg/kg/day in Western diet
  fecal bile acid excretion, change: +41%
[3]; [4]
  ApoA1 levels, increase: 98%
  HDL-C, change: +260%
  half-life of VLDL-like particles, change: −44%
  hepatic LDL receptor expression, change: +63%
  non-HDL-C levels, change: −61%
  total plasma cholesterol levels, change: −42%
